Read-outs that look alike come from different tables or passages of the source. Marks after values point to notes of the source that are not given here.
Molecular target: NA of A/Texas/12/2007 (H3N2 119 V) (Influenza A virus (A/Texas/12/2007(H3N2)), UniProt D1FVK3, I119V)
Assay: biochemical
Type: biochemical

Molecule | Fold change | IC50 (read-out: Mean IC50 (nM) ± SD) | IC50
oseltamivir carboxylate | 520.08^c fold | 62.4 ± 2.16 nM | 
CC(=O)N[C@H]1[C@H]([C@H](O)[C@H](O)CO)OC(C(=O)O)=C[C@@H]1N=C(N)N [Zanamivir, zanamivir] |  |  | 1.56 ± 0.55 nM
